In ChEMBL document CHEMBL1145531, “Cyclopentanone ring-cleaved pleuromutilin derivatives” (2007):
Converted amounts (≈) assume the structure as drawn.

What was measured:
Staphylococcus aureus = test: Antibacterial activity against Staphylococcus aureus A15090 after 24 hrs; assay type: functional; conditions: A15090, 24 h
Streptococcus pneumoniae = test: Antibacterial activity against Streptococcus pneumoniae A9585 after 24 hrs; assay type: functional; conditions: A9585, 24 h

MIC (Staphylococcus aureus)	MIC (Streptococcus pneumoniae)	Compound
8 µg/mL (≈ 13.9 µM)	2 µg/mL (≈ 3.48 µM)	C=C[C@]1(C)C[C@@H](OC(=O)CSc2cccc(N)c2)[C@@]2(C)C(=O)[C@](CCC(=O)NCC(=O)O)(CCC2C)[C@@H](C)[C@@H]1O (stereo not given in full)
> 128 µg/mL	> 64 µg/mL	C=C[C@]1(C)C[C@@H](OC(=O)CO)[C@@]2(C)C(=O)[C@](CCC(=O)NCC)(CCC2C)[C@@H](C)[C@@H]1O (stereo not given in full)
32 µg/mL (≈ 54.5 µM)	4 µg/mL (≈ 6.82 µM)	C=C[C@]1(C)C[C@@H](OC(=O)CSc2cc(C)nc(C)c2)[C@@]2(C)C(=O)[C@](CCC(=O)N(CC)CC)(CCC2C)[C@@H](C)[C@@H]1O (stereo not given in full)
16 µg/mL (≈ 32.8 µM)	8 µg/mL (≈ 16.4 µM)	C=C[C@]1(C)C[C@@H](OC(=O)CSc2cccc(N)c2)[C@@]2(C)C(=O)[C@](CCC)(CCC2C)[C@@H](C)[C@@H]1O (stereo not given in full)
16 µg/mL (≈ 35.3 µM)	0.25 µg/mL (≈ 0.551 µM)	C=C[C@]1(C)C[C@@H](OC(=O)CO)[C@@]2(C)C(=O)[C@](CCNC(=O)OCC)(CCC2C)[C@@H](C)[C@@H]1O (stereo not given in full)
1 µg/mL (≈ 1.83 µM)	1 µg/mL (≈ 1.83 µM)	C=C[C@]1(C)C[C@@H](OC(=O)CSc2cccc(N)c2)[C@@]2(C)C(=O)[C@](CCC(=O)OCC)(CCC2C)[C@@H](C)[C@@H]1O (stereo not given in full)
32 µg/mL (≈ 55.9 µM)	4 µg/mL (≈ 6.98 µM)	C=C[C@]1(C)C[C@@H](OC(=O)CSc2cccc(N)c2)[C@@]2(C)C(=O)[C@](CCC(=O)N(CC)CC)(CCC2C)[C@@H](C)[C@@H]1O (stereo not given in full)
0.25 µg/mL (≈ 0.483 µM)	0.125 µg/mL (≈ 0.241 µM)	C=C[C@]1(C)C[C@@H](OC(=O)CSc2cccc(N)c2)[C@@]2(C)C(=O)[C@](CCC(=O)O)(CCC2C)[C@@H](C)[C@@H]1O (stereo not given in full)
8 µg/mL (≈ 19.5 µM)	8 µg/mL (≈ 19.5 µM)	C=C[C@]1(C)C[C@@H](OC(=O)CO)[C@@]2(C)C(=O)[C@](CCC(=O)O)(CCC2C)[C@@H](C)[C@@H]1O (stereo not given in full)
> 128 µg/mL	> 64 µg/mL	C=C[C@]1(C)C[C@@H](OC(=O)CSc2ccccc2)[C@@]2(C)C(=O)[C@](CCC(=O)O)(CCC2C)[C@@H](C)[C@@H]1O (stereo not given in full)
8 µg/mL (≈ 15.9 µM)	8 µg/mL (≈ 15.9 µM)	C=C[C@]1(C)C[C@@H](OC(=O)CSc2ccccn2)[C@@]2(C)C(=O)[C@](CCC(=O)O)(CCC2C)[C@@H](C)[C@@H]1O (stereo not given in full)
> 128 µg/mL	> 64 µg/mL	C=C[C@]1(C)C[C@@H](OC(=O)CSc2nnc(N)[nH]2)[C@@]2(C)C(=O)[C@](CCC(=O)O)(CCC2C)[C@@H](C)[C@@H]1O (stereo not given in full)
32 µg/mL (≈ 65.2 µM)	2 µg/mL (≈ 4.08 µM)	C=C[C@]1(C)C[C@@H](OC(=O)CO)[C@@]2(C)C(=O)[C@](CCCNC(=O)c3ccno3)(CCC2C)[C@@H](C)[C@@H]1O (stereo not given in full)
8 µg/mL (≈ 15 µM)	8 µg/mL (≈ 15 µM)	C=C[C@]1(C)C[C@@H](OC(=O)CSc2ccncc2)[C@@]2(C)C(=O)[C@](CCC(=O)OCC)(CCC2C)[C@@H](C)[C@@H]1O (stereo not given in full)
> 128 µg/mL	> 64 µg/mL	C=C[C@]1(C)C[C@@H](OC(=O)CO)[C@@]2(C)C(=O)[C@](CCC(=O)N(CC)CC)(CCC2C)[C@@H](C)[C@@H]1O (stereo not given in full)
1 µg/mL (≈ 1.88 µM)	1 µg/mL (≈ 1.88 µM)	C=C[C@]1(C)C[C@@H](OC(=O)CSc2ccccn2)[C@@]2(C)C(=O)[C@](CCC(=O)OCC)(CCC2C)[C@@H](C)[C@@H]1O (stereo not given in full)
128 µg/mL (≈ 313 µM)	64 µg/mL (≈ 156 µM)	C=C[C@]1(C)C[C@@H](OC(=O)CO)[C@@]2(C)C(=O)[C@](CCC(N)=O)(CCC2C)[C@@H](C)[C@@H]1O (stereo not given in full)
> 128 µg/mL	> 64 µg/mL	C=C[C@]1(C)C[C@@H](OC(=O)CO)[C@@]2(C)C(=O)[C@](CCN)(CCC2C)[C@@H](C)[C@@H]1O (stereo not given in full)
> 128 µg/mL	> 64 µg/mL	C=C[C@]1(C)C[C@@H](OC(=O)CO)[C@@]2(C)C(=O)[C@](CCCO)(CCC2C)[C@@H](C)[C@@H]1O (stereo not given in full)
128 µg/mL (≈ 254 µM)	64 µg/mL (≈ 127 µM)	C=C[C@]1(C)C[C@@H](OC(=O)CSc2ccncc2)[C@@]2(C)C(=O)[C@](CCC(=O)O)(CCC2C)[C@@H](C)[C@@H]1O (stereo not given in full)
4 µg/mL (≈ 6.34 µM)	0.5 µg/mL (≈ 0.793 µM)	C=C[C@]1(C)C[C@@H](OC(=O)CSc2cccc(N)c2)[C@@]2(C)C(=O)[C@](CCC(=O)NCC(=O)OC(C)(C)C)(CCC2C)[C@@H](C)[C@@H]1O (stereo not given in full)
32 µg/mL (≈ 53.2 µM)	4 µg/mL (≈ 6.65 µM)	C=C[C@]1(C)C[C@@H](OC(=O)CSc2ccccc2C(=O)O)[C@@]2(C)C(=O)[C@](CCC(=O)N(CC)CC)(CCC2C)[C@@H](C)[C@@H]1O (stereo not given in full)
8 µg/mL (≈ 15.4 µM)	4 µg/mL (≈ 7.71 µM)	C=C[C@]1(C)C[C@@H](OC(=O)CSc2ccccc2O)[C@@]2(C)C(=O)[C@](CCC(=O)O)(CCC2C)[C@@H](C)[C@@H]1O (stereo not given in full)
16 µg/mL (≈ 31 µM)	0.25 µg/mL (≈ 0.485 µM)	C=C[C@]1(C)C[C@@H](OC(=O)CO)[C@@]2(C)C(=O)[C@](CCNC(=O)OCc3ccccc3)(CCC2C)[C@@H](C)[C@@H]1O (stereo not given in full)

Compound	MIC (Staphylococcus aureus)	MIC (Streptococcus pneumoniae)
C=C[C@]1(C)C[C@@H](OC(=O)CO)[C@]2(C)[C@H](C)CC[C@]3(CCC(=O)[C@@H]32)[C@@H](C)[C@@H]1O [PLEUROMUTILIN]	0.5 µg/mL (≈ 1.32 µM)	0.5 µg/mL (≈ 1.32 µM)
